Experimental data: US12569453B2, “Use of tapinarof for the treatment of atopic dermatitis” (Dermavant Sciences GmbH, priority 2018, dated 2026)
Marks after values point to notes of the source that are not given here.

System: adult subjects with psoriasis
Test: Phase II/2b clinical study in plaque psoriasis: efficacy and patient-reported outcomes
Assay type: in vivo, human
Settings: for PGA response rate (primary endpoint): interim analysis; for subjects with ≥4 improvement in pruritus NRS score from baseline: baseline NRS score ≥4; for PGA response rate (PGA 0 or 1 and ≥2-grade improvement): mITT OC; for PGA treatment success: Week 16 (4 weeks after end of treatment)
Description: This was a multicenter (United States, Canada, and Japan), randomized, double-blind (Sponsor-unblind), vehicle-controlled, 6-arm, parallel-group, dose-finding study in adult subjects with psoriasis. Certain study personnel at each site were unblinded to dose-frequency.
The study consisted of 3 periods: up to 4 weeks Screening, 12 weeks double-blind treatment, and 4 weeks post-treatment follow-up. Study visits occurred at Screening; Baseline; weeks 1, 2, 4, 8, and 12 during the treatment period; and 2 and 4 weeks after the last application of study treatment (i.e., at weeks 14 and 16). Additional visits could occur, as needed, for early withdrawals or to follow-up on any skin reactions or ongoing AEs. A subject's total duration of study participation was approximately 16 to 20 weeks.
Two concentrations of Tapinarof cream (0.5% and 1%) and a vehicle control were evaluated following application to all psoriasis lesions (except on the scalp) once (QD) or twice daily (BID) for 12 weeks. There were no planned dose adjustments during the study.
Efficacy was assessed by using a 5-point static Physician Global Assessment (PGA) (0-4 scale), the Psoriasis Area and Severity Index (PASI), % BSA involvement, target lesion assessments (erythema, scaling, and plaque thickness), and subject-reported itch/pruritus severity using a numeric rating scale (NRS) (from the Psoriasis Symptom Diary [PSD]). Additional subject-reported outcomes included the daily PSD (which also contained severity and bother items for 3 additional symptoms). Investigator global impression of change item (assessing change in severity of psoriasis symptoms) and 2 subject global impressions of change items (assessing change in severity of psoriasis symptoms and change in severity of itch/pruritus) were also assessed.
Physician Global Assessment: The PGA is a clinical tool for assessing the current state/severity of a subject's psoriasis. It is a static 5-point morphological assessment of overall disease severity, as determined by the investigator, using the clinical characteristics of erythema, plaque thickness, and scaling as guidelines. At each specified time point, the PGA is made without reference to previous scores. Variations of the PGA are frequently used in clinical studies because it is a simple assessment that is more similar to the assessments actually used in clinical practice. Scoring system ranges from 0 (=Clear) to 4 (=Severe).
Psoriasis Area and Severity Index: The PASI scoring system is a widely-used standard clinical tool for assessing the severity of psoriasis that takes into account the overall severity of erythema (redness), thickness (induration), and scale, as well as the extent of BSA affected with psoriasis. The 3 clinical signs are each graded on a 5 point scale (0 to 4) and the % BSA affected is scored on a 7-point scale (0 to 6) for each of the 4 specified body regions (head, upper extremities, trunk, and lower extremities). The individual scores are multiplied by a weighted factor for each body region; the sum of these scores gives the overall PASI score. Higher scores indicate more severe disease. PASI is a static assessment made without reference to previous scores.
Body Surface Area: The extent of BSA affected by psoriasis is a general indicator of disease severity and was measured throughout the study. The extent of BSA to which study treatment was applied was also recorded. For the purpose of approximate clinical estimation, the total palmar surface of the palm plus 5 digits was assumed to be approximately equivalent to 1% BSA.
Target Lesion Grading: A single target lesion was selected at Baseline to assess efficacy in treating a discrete area rather than an overall average of all areas. For that lesion, the severity of erythema, scaling, and plaque thickness was assessed by the investigator on a 5-point scale ranging from “0=none” to “4=severe”. […]

CC(C)c1c(O)cc(/C=C/c2ccccc2)cc1O [Tapinarof, 3,5-Dihydroxy-4-isopropyl-trans-stilbene]
difference in PGA response rate, active minus vehicle (0.5% BID-vehicle BID, Week 12): 35.6% | PGA response at Week 12 (0.5% BID, 1 to <10% BSA affected at baseline): 33% | Target lesion Erythema, percent change from Baseline (Mean) (0.5% BID, Early WD): −25.00% | Target lesion Plaque thickness, percent change from Baseline (Mean) (0.5% BID, Early WD): −33.33% | Target lesion Scaling, percent change from Baseline (Mean) (0.5% BID, Early WD): −41.67% | PGA response at Week 12 (0.5% BID, Fitzpatrick skin type I/II): 50% | PGA response at Week 12 (0.5% BID, Fitzpatrick skin type III/IV): 60% | PGA response at Week 12 (0.5% BID, Fitzpatrick skin type V/VI): 25% | Target lesion Erythema, percent change from Baseline (Mean) (0.5% BID, Follow-up Week 14): −68.25% | Target lesion Plaque thickness, percent change from Baseline (Mean) (0.5% BID, Follow-up Week 14): −67.86% | Target lesion Scaling, percent change from Baseline (Mean) (0.5% BID, Follow-up Week 14): −68.65% | Target lesion Erythema, percent change from Baseline (Mean) (0.5% BID, Follow-up/Week 16): −59.47% | Target lesion Plaque thickness, percent change from Baseline (Mean) (0.5% BID, Follow-up/Week 16): −54.92% | Target lesion Scaling, percent change from Baseline (Mean) (0.5% BID, Follow-up/Week 16): −57.95% | Target lesion Erythema, percent change from Baseline (Mean) (0.5% BID, Week 1): −9.95% | Target lesion Plaque thickness, percent change from Baseline (Mean) (0.5% BID, Week 1): −14.52% | Target lesion Scaling, percent change from Baseline (Mean) (0.5% BID, Week 1): −12.37% | Target lesion Erythema, percent change from Baseline (Mean) (0.5% BID, Week 2): −23.61% | Target lesion Plaque thickness, percent change from Baseline (Mean) (0.5% BID, Week 2): −33.89% | Target lesion Scaling, percent change from Baseline (Mean) (0.5% BID, Week 2): −35.00% | Target lesion Erythema, percent change from Baseline (Mean) (0.5% BID, Week 4): −45.54% | Target lesion Plaque thickness, percent change from Baseline (Mean) (0.5% BID, Week 4): −44.64% | Target lesion Scaling, percent change from Baseline (Mean) (0.5% BID, Week 4): −50.89% | Target lesion Erythema, percent change from Baseline (Mean) (0.5% BID, Week 8): −62.33% | Target lesion Plaque thickness, percent change from Baseline (Mean) (0.5% BID, Week 8): −62.67% | Target lesion Scaling, percent change from Baseline (Mean) (0.5% BID, Week 8): −60.00% | PGA response rate (primary endpoint) (0.5% BID, Week 8): 36% | Mean change in nine items of the PSD from baseline (0.5% BID, Week 12): −4.2^‡ | Mean change in total target lesion grading scores from baseline (0.5% BID, Week 12): −6.2* | Target lesion Erythema, percent change from Baseline (Mean) (0.5% BID, Week 12): −76.52% | Target lesion Plaque thickness, percent change from Baseline (Mean) (0.5% BID, Week 12): −71.59% | Target lesion Scaling, percent change from Baseline (Mean) (0.5% BID, Week 12): −78.03% | subjects with ≥4 improvement in pruritus NRS score from baseline (0.5% BID, Week 12): 56% | PGA response rate (PGA 0 or 1 and ≥2-grade improvement) (0.5% BID, Week 12): 46% | PASI50 response rate (0.5% BID, Week 16): 62% | PASI75 response rate (0.5% BID, Week 16): 46% | PASI90 response rate (0.5% BID, Week 16): 27% | PGA treatment success (0.5% BID): 35% | PGA response at Week 12 (0.5% BID, psoriasis duration 5 years to <10 years): 20% | PGA response at Week 12 (0.5% BID, psoriasis duration 6 months to <5 years): 50% | PGA response at Week 12 (0.5% BID, psoriasis duration ≥10 years): 53% | PGA response at Week 12 (0.5% BID, ≥10% BSA affected at baseline): 75% | difference in PGA response rate, active minus vehicle (0.5% QD-vehicle QD, Week 12): 30.7% | PGA response at Week 12 (0.5% QD, 1 to <10% BSA affected at baseline): 35% | Target lesion Erythema, percent change from Baseline (Mean) (0.5% QD, Early WD): 8.33% | Target lesion Plaque thickness, percent change from Baseline (Mean) (0.5% QD, Early WD): 0.00% | Target lesion Scaling, percent change from Baseline (Mean) (0.5% QD, Early WD): −16.67% | PGA response at Week 12 (0.5% QD, Fitzpatrick skin type I/II): 25% | PGA response at Week 12 (0.5% QD, Fitzpatrick skin type III/IV): 44% | PGA response at Week 12 (0.5% QD, Fitzpatrick skin type V/VI): 25% | Target lesion Erythema, percent change from Baseline (Mean) (0.5% QD, Follow-up Week 14): −63.77% | Target lesion Plaque thickness, percent change from Baseline (Mean) (0.5% QD, Follow-up Week 14): −67.39% | Target lesion Scaling, percent change from Baseline (Mean) (0.5% QD, Follow-up Week 14): −67.75% | Target lesion Erythema, percent change from Baseline (Mean) (0.5% QD, Follow-up/Week 16): −73.96% | Target lesion Plaque thickness, percent change from Baseline (Mean) (0.5% QD, Follow-up/Week 16): −71.53% | Target lesion Scaling, percent change from Baseline (Mean) (0.5% QD, Follow-up/Week 16): −69.79% | Target lesion Erythema, percent change from Baseline (Mean) (0.5% QD, Week 1): −14.25% | Target lesion Plaque thickness, percent change from Baseline (Mean) (0.5% QD, Week 1): −10.22% | Target lesion Scaling, percent change from Baseline (Mean) (0.5% QD, Week 1): −20.97% | Target lesion Erythema, percent change from Baseline (Mean) (0.5% QD, Week 2): −28.13% | Target lesion Plaque thickness, percent change from Baseline (Mean) (0.5% QD, Week 2): −26.04% | Target lesion Scaling, percent change from Baseline (Mean) (0.5% QD, Week 2): −34.38% | Target lesion Erythema, percent change from Baseline (Mean) (0.5% QD, Week 4): −35.48% | Target lesion Plaque thickness, percent change from Baseline (Mean) (0.5% QD, Week 4): −42.47% | Target lesion Scaling, percent change from Baseline (Mean) (0.5% QD, Week 4): −51.34% | Target lesion Erythema, percent change from Baseline (Mean) (0.5% QD, Week 8): −50.81% | Target lesion Plaque thickness, percent change from Baseline (Mean) (0.5% QD, Week 8): −60.75% | Target lesion Scaling, percent change from Baseline (Mean) (0.5% QD, Week 8): −68.01% | PGA response rate (primary endpoint) (0.5% QD, Week 8): 46% | Mean change in nine items of the PSD from baseline (0.5% QD, Week 12): −4.1^† | Mean change in total target lesion grading scores from baseline (0.5% QD, Week 12): −5.8* | PASI90 response rate (0.5% QD, Week 12): 18% | Target lesion Erythema, percent change from Baseline (Mean) (0.5% QD, Week 12): −65.06% | Target lesion Plaque thickness, percent change from Baseline (Mean) (0.5% QD, Week 12): −67.31% | Target lesion Scaling, percent change from Baseline (Mean) (0.5% QD, Week 12): −72.76% | subjects with ≥4 improvement in pruritus NRS score from baseline (0.5% QD, Week 12): 57% | PGA response rate (PGA 0 or 1 and ≥2-grade improvement) (0.5% QD, Week 12): 36% | PASI50 response rate (0.5% QD, Week 16): 71% | PASI75 response rate (0.5% QD, Week 16): 54% | PASI90 response rate (0.5% QD, Week 16): 18% | PGA treatment success (0.5% QD): 36% | PGA response at Week 12 (0.5% QD, psoriasis duration 5 years to <10 years): 50% | PGA response at Week 12 (0.5% QD, psoriasis duration 6 months to <5 years): 29% | PGA response at Week 12 (0.5% QD, psoriasis duration ≥10 years): 33% | PGA response at Week 12 (0.5% QD, ≥10% BSA affected at baseline): 38% | subjects rating overall psoriasis symptoms very improved or moderately improved (0.5% groups, Week 12): 77-80% | subjects rating pruritus symptoms very improved or moderately improved (0.5% groups, Week 12): 73-77% | PASI75 responders who maintained response from Week 12 to Week 16 (1% BID): 80% | PGA responders who maintained response from Week 12 to Week 16 (1% BID): 67% | difference in PGA response rate, active minus vehicle (1% BID-vehicle BID, Week 12): 54.7% | PGA response at Week 12 (1% BID, 1 to <10% BSA affected at baseline): 67%
